Reference: patent publication US6372728B1, “Formulation for treatment of osteoporosis” (AstraZeneca AB, priority 1997, dated 2002)
Where two headings read alike, the source gives them in different places.

Columns and labels:
[1] = taken either concurrently with or 2 hours after breakfast; cited from earlier work
[2] = tested on: bone resorption in the TPTX rats; details: TPTX rat; for decrease in blood levels of Ca2+ (FIG. 2): 0.01-5 mgP/kg
Experimental: Female Spraque-Dawley rats from Molegaards Breeding Centre, Skensved, Denmark were used in the experiments. The animals were kept three by three in Macrolon cages, with free access to standard rat food pellets and tap water during the whole experiment. TPTX (Thyroparathyroidectomy) was preformed during anaesthesia with xylazine (Rompun®, 20 mg/ml, 0.25 ml/kg, intraperitoneally (i.p.)) and ketamine (Ketalar®, 50 mg/ml, 2.0 ml/kg, i.p.). After TPTX all rats were supplemented with 4 μg/kg thyroxin subcutaneously three times a week. TPTX adequacy was checked by determination of blood levels of Ca^2+ in a blood samples obtained from the vein of the tail 5-6 days after surgery. TPTX was considered successful if blood Ca^2+ was ≦80% of the concentration found in the rats before surgery.
Bone resorption in the TPTX rats was stimulated by the arotinoid ethyl p-[(E)-2-(5,6,7,8-tetrahydro-5,5,8,8-tetramethyl-2-naphtyl)penyl]-benzoate (RO 13-6298, a gift from Hoffman-La Roche AG, Basel, Switzerland). RO 13-6298 was administered subcutaneously once daily (100 μg/kg in 1 ml/kg solved in polyethylene glycol 300 containing 10% ethanol) for three consecutive days (days 1, 2 and 3), day 1 being five to six days after TPTX.

For NCCCC(O)(P(=O)(O)O)P(=O)(O)O [alendronate, 4-amino-1-hydroxybutylidene-1,1-biphosphonic acid], the impairment of availability [1] is given as greater than 85%, the “decrease of blood levels of Ca2+ compared to rats treated with only saline” value ([2]; 24 hours after the third oral dose, 1 mgP/kg, dissolved in saline (0.9% NaCl), free access to food) is given as “no significant decrease” and the “decrease in blood levels of Ca2+ (FIG. 2)” value ([2]; saline i.v.) is given as “dose-dependent decrease”. For the same compound, the “decrease in blood levels of Ca2+ (FIG. 2)” value ([2]; saline p.o.) was “dose-dependent decrease”.
